Laboratory results published in patent US20210352895A1, “SYNERGISTIC PESTICIDAL COMPOSITIONS AND METHODS FOR DELIVERY OF ACTIVE INGREDIENTS” (0903608 B.C. Ltd., priority 2018, published 2021).
Read-outs that look alike come from different tables or passages of the source. One block for each compound: values may come before it.

Key:
Sclerotinia sclerotiorum = experiment: Synergistic Growth Inhibition Assay (MIC / FIC index, resazurin, 96-well) on Sclerotinia sclerotiorum; type: cell-based; details: for MIC (A): Compound A alone
Experimental: (§1) In some embodiments, the synergistic action between the pesticidal active ingredient, and the at least one C4-C10 (or alternatively C11 or C12) saturated or unsaturated aliphatic acid components of the pesticidal compositions according to embodiments of the present disclosure was tested using a Synergistic Growth Inhibition Assay, which is derived from and related to a checkerboard assay as is known in the art for testing of combinations of antimicrobial agents. In the Synergistic Growth Inhibition Assay used in accordance with some embodiments of the present disclosure, multiple dilutions of combinations of pesticidal active ingredient and at least one C4-C10 saturated or unsaturated aliphatic acid agents are tested in individual cells for inhibitory activity against a target pest or pathogenic organism. In one such embodiment, the combinations of pesticidal active ingredient and C4-C10 (or alternatively C11 or C12) saturated or unsaturated aliphatic acid agents may preferably be tested in decreasing concentrations. In a further such embodiment, the combinations of pesticidal active ingredient and C4-C10 (or alternatively C11 or C12) saturated or unsaturated aliphatic acid agents may be tested in increasing concentrations. These multiple combinations of the pesticidal active ingredient and at least one C4-C10 (or alternatively C11 or C12) saturated or unsaturated aliphatic acid agents may be prepared in 96-well microtiter plates. In one such embodiment, the Synergistic Growth Inhibition Assay then comprises rows which each contain progressively decreasing concentrations of the pesticidal active ingredient and one or more C4-C10 (or alternatively C11 or C12) saturated or unsaturated aliphatic acid agents to test for the MIC of the agents in combination at which growth of the target pest or pathogen is inhibited. Thus, each well of the microtiter plate is a unique combination of the two agents, at which inhibitory efficacy of the combination against the target pest or pathogen can be determined.
(§2) In one embodiment according to the present disclosure, for each row of microtiter cells in the Synergistic Growth Inhibition Assay, the FIC index is calculated from the lowest concentration of the pesticidal active ingredient and one or more C4-C10 saturated or unsaturated aliphatic acid agents necessary to inhibit growth of a target pest or pathogen. The FIC of each component is derived by dividing the concentration of the agent present in that well of the microtiter plate by the minimal inhibitory concentration (MIC) needed of that agent alone to inhibit growth of the target pest or pathogen. The FIC index is then the sum of these values for both agents in that well of the microtiter plate. The FIC index is calculated for each row as follows:
(§3) FICindex=MICa/MICA+MICb/MICB
(§4) Fractional inhibitory concentration indices may then used as measure of synergy. […] When the FIC index is equal to 1, the combination is additive.
(§5) Then, serial dilutions of these initial compositions in successive wells in the row of the microtiter plate were used to assay the pesticidal composition under the same conditions to determine the concentration of the composition combining the two agents corresponding to the microtiter well in which growth inhibition of the target pest or organism ceases.
(§6) Similarly to as described above, Resazurin was used as an indicator of growth or inhibition of growth of Sclerotinia sclerotiorum in the exemplary Synergistic Growth Inhibition Assay. In addition to the color change of the resazurin, an optical or visual examination of the microtiter well may also be made to additionally determine the presence of growth or inhibition of growth of the Sclerotinia sclerotiorum.

Botrytis cinerea = experiment: Synergistic Growth Inhibition Assay (MIC / FIC index, resazurin, 96-well) on Botrytis cinerea; type: cell-based; details: Botrytis cinerea, Botrytis cinerea; for MIC: 48 h
Experimental: as §1, §2, §3, §4, §5
as §6, with “Botrytis cinerea” for “Sclerotinia sclerotiorum”, “Botrytis cinerea.” for “Sclerotinia sclerotiorum.”

Fusarium oxysporum = experiment: Synergistic Growth Inhibition Assay (MIC / FIC index, resazurin, 96-well) on Fusarium oxysporum; type: cell-based; details: for MIC: 48 h
Experimental: as §1, §2, §3, §4, §5
Resazurin dye (also known as Alamar blue dye) was used as an indicator to determine the presence of growth or inhibition of growth of Fusarium oxysporum in the wells of the 96 well microtiter plates used in the exemplary Synergistic Growth Inhibition Assay. In addition to the color change of the resazurin dye in the presence of growth of the Fusarium oxysporum, an optical or visual examination of the microtiter well may also be made to additionally determine the presence of growth or inhibition of growth of the Fusarium oxysporum.

Trichoplusia ni = experiment: In-vitro insecticidal efficacy of Entrust SC (spinosad) with saturated and unsaturated aliphatic acids on artificial diet, Abbott and Colby formulae; type: in vivo, Trichoplusia ni (cabbage looper); details: Entrust SC 0.034 ppm ([…] spinosad); aliphatic acid (salt) 500 ppm; Abbott-corrected
Experimental: An artificial diet suitable for Trichoplusia ni (cabbage looper caterpillar) was prepared from a commercially available general purpose lepidoptera artificial diet premix (General Purpose Lepidoptera Diet available from Frontier Scientific Services, Newark, Del.) mixed in agar media and then heated to liquify the media. The liquid artificial diet media was then used to fill each well of a 96-well treatment plate with 200 uL of artificial diet media, which was allowed to solidify at room temperature and stored at approximately 4 C.
A 20 uL treatment sample of each treatment formulation was then placed on top of the solidified artificial diet media in each well of the 96 well plates and allowed to dry overnight. The following day, one neonate Trichoplusia ni (cabbage looper) larva (hatched from eggs obtained from the Natural Resource Canada insect research facility in Sault-Ste-Marie, ON, Canada) was added to each well of the plate, and their mortality rate was evaluated after 5 days, to determine the insecticidal efficacy of the Entrust® SC treatment alone, each exemplary unsaturated or saturated aliphatic acid (and salt) alone, and each combination of spinosad (as Entrust® SC) and unsaturated or saturated aliphatic acid (and salt). Each experiment contained 3 replicates.
While for SF<1, antagonism is present and for SF=1, the efficacy of the compounds is merely additive.

[1] = Fusarium oxysporum, Compound B alone, Fusarium oxysporum, 48 hours incubation, read-out: MIC (B)
[2] = Sclerotinia sclerotiorum, Compound B alone, Sclerotinia sclerotiorum, incubation period of 7 days, read-out: MIC (B)
[3] = Sclerotinia sclerotiorum, Compound B alone, Sclerotinia sclerotiorum, 7 days incubation, read-out: MIC (B)
[4] = Compound A alone, 48 hours incubation
[5] = Compound A alone, incubation period of 2 days
[6] = Compound A alone, incubation period of 48 hours
[7] = Compound B alone, 48 hours incubation
[8] = Sclerotinia sclerotiorum, read-out: MIC (B), Compound B alone, Sclerotinia sclerotiorum, 7 days incubation
[9] = Compound A alone, incubation period of 48 hours, read-out: MIC (A)
[10] = Fusarium oxysporum, Compound B alone, Fusarium oxysporum, incubation period of 48 hours, read-out: MIC (B)

SMILES: N#Cc1c[nH]cc1-c1cccc2c1OC(F)(F)O2 [Fludioxonil, fludioxonil, reference compound]
MIC (Sclerotinia sclerotiorum; Sclerotinia sclerotiorum, read-out: MIC (A), Compound A alone, Sclerotinia sclerotiorum, incubation period of 7 days): 0.328 µg/mL
MIC (Botrytis cinerea; read-out: MIC (A), Compound A alone, incubation period of 2 days): 0.164 µg/mL

MIC (Fusarium oxysporum; [1]): 250 µg/mL
MIC (Sclerotinia sclerotiorum; [2]): 250 µg/mL
SMILES: CCC(CC)(CC)C(=O)O [2,2-diethylbutyric acid]

SMILES: CCCCCCCC(=O)[O-].[K+] [Octanoic acid, K-salt]
Observed Efficacy, W (%) (Trichoplusia ni): 0%

SMILES: COC(=O)N(OC)c1ccccc1COc1ccn(-c2ccc(Cl)cc2)n1 [Pyraclostrobin, pyraclostrobin, reference compound]
MIC (A) (Sclerotinia sclerotiorum; 7 days incubation): 3.75 µg/mL
MIC (Botrytis cinerea; Compound A alone, incubation period of 2 days, read-out: MIC (A)): 15 µg/mL

MIC (Fusarium oxysporum; [1]): 125 µg/mL
MIC (Sclerotinia sclerotiorum; [3]): 125 µg/mL
MIC (Sclerotinia sclerotiorum; [2]): 125 µg/mL
SMILES: CCCC(C)CC(=O)O (centres unmarked) [3-methylhexanoic acid]

SMILES: CC(C)(C)C(O)(CCc1ccc(Cl)cc1)Cn1cncn1 (centres unmarked) [Tebuconazole, reference compound]
MIC (A) (Fusarium oxysporum; [4]): 225 µg/mL
MIC (Fusarium oxysporum; Fusarium oxysporum, Compound A alone, Fusarium oxysporum, incubation period of 48 hours, read-out: MIC (A)): 112 µg/mL
MIC (A) (Sclerotinia sclerotiorum; Sclerotinia sclerotiorum, 2-fold dilutions, incubation period of 7 days): 112.5 µg/mL
MIC (A) (Botrytis cinerea; [5]): 112.5 µg/mL
MIC (A) (Botrytis cinerea; [6]): 112.5 µg/mL

MIC (Fusarium oxysporum; [1]): 625 µg/mL
MIC (Sclerotinia sclerotiorum; [3]): 312 µg/mL
SMILES: CC(C)CC(=O)O [3-methylbutyric acid]

SMILES: CC/C=C/CC(=O)O [Trans-3-hexenoic acid, trans-3-hexenoic acid]
Observed Efficacy, W (%) (Trichoplusia ni): 0%

MIC (B) (Botrytis cinerea; [7]): 10000 µg/mL
SMILES: CC(O)CC(=O)O (centres unmarked) [3-Hydroxybutyric acid, 3-hydroxybutyric acid]

SMILES: O=C(O)CCCCCCCCCO [10-hydroxydecanoic acid]
MIC (Fusarium oxysporum; Fusarium oxysporum, read-out: MIC (B), Compound B alone, Fusarium oxysporum, 48 hours incubation): 1000 µg/mL
MIC (Sclerotinia sclerotiorum; [8]): 1000 µg/mL
MIC (Botrytis cinerea; read-out: MIC (B), Compound B alone, 48 hours incubation): 500 µg/mL
MIC (Botrytis cinerea; read-out: MIC (B), Compound B alone, incubation period of 2 days): 500 µg/mL

SMILES: C=CCCCCCCCC(=O)O [9-Decenoic acid, 9-decenoic acid]
Observed Efficacy, W (%) (Trichoplusia ni): 4.5%

SMILES: Cc1cc(C2CC2)nc(Nc2ccccc2)n1 [Cyprodinil, reference compound]
MIC (Botrytis cinerea; [9]): 9 µg/mL

SMILES: CCCCCCCCCCCC(=O)O [Dodecanoic acid, dodecanoic acid]
Observed Efficacy, W (%) (Trichoplusia ni): 0%

SMILES: CCCCCCCC/C=C/C(=O)O [Trans-2 undecenoic acid]
Observed Efficacy, W (%) (Trichoplusia ni): 27.3%

MIC (Fusarium oxysporum; [1]): 156 µg/mL
MIC (Sclerotinia sclerotiorum; [3]): 78.1 µg/mL
MIC (Sclerotinia sclerotiorum; [2]): 78.1 µg/mL
MIC (Botrytis cinerea; Compound B alone, incubation period of 48 hours, read-out: MIC (B)): 156 µg/mL
SMILES: CCC(C)CCC(=O)O (centres unmarked) [4-methylhexanoic acid]

SMILES: CCCCCC=CCC(=O)O [3-nonenoic acid]
Observed Efficacy, W (%) (Trichoplusia ni): 9.1%

SMILES: C=CCCCCCC(=O)O [7-octenoic acid]
Observed Efficacy, W (%) (Trichoplusia ni): 0%

MIC (A) (Fusarium oxysporum; Compound A alone, Fusarium oxysporum, incubation period of 48 hours): 500 µg/mL
MIC (A) (Fusarium oxysporum; Table 60, Compound A = nootkatone(+), alone or in combination with Compound B, incubation period not stated in table (either 24 hours or 4 days)): 500 µg/mL
MIC (A) (Botrytis cinerea; [6]): 125 µg/mL
SMILES: C=C(C)[C@@H]1CCC2=CC(=O)C[C@@H](C)[C@]2(C)C1 [Nootkatone (+)]

MIC (Fusarium oxysporum; [10]): 1250 µg/mL
MIC (Sclerotinia sclerotiorum; [3]): 625 µg/mL
MIC (Sclerotinia sclerotiorum; [2]): 625 µg/mL
SMILES: CCCCCC(O)CC(=O)O (centres unmarked) [3-hydroxyoctanoic acid]

SMILES: CCCCC=CCC(=O)O [3-Octenoic acid, 3-octenoic acid]
Observed Efficacy, W (%) (Trichoplusia ni): 0%

SMILES: CCCCCCCC(=O)O [Octanoic acid, octanoic acid]
Observed Efficacy, W (%) (Trichoplusia ni): 4.5%

SMILES: O=C(O)CCCCCCCCCCCO [12-hydroxydodecanoic acid]
MIC (Sclerotinia sclerotiorum; [8]): 100 µg/mL
MIC (Sclerotinia sclerotiorum; Sclerotinia sclerotiorum, read-out: MIC (B), Compound B alone, Sclerotinia sclerotiorum, incubation period of 7 days): 100 µg/mL

MIC (Fusarium oxysporum; [1]): 2500 µg/mL
MIC (Fusarium oxysporum; [10]): 2500 µg/mL
MIC (Sclerotinia sclerotiorum; [2]): 2500 µg/mL
MIC (Botrytis cinerea; Compound B alone, 48 hours incubation, read-out: MIC (B)): 2500 µg/mL
MIC (Botrytis cinerea; Compound B alone, incubation period of 2 days, read-out: MIC (B)): 2500 µg/mL
SMILES: CCCCC(O)C(=O)O (centres unmarked) [2-hydroxyhexanoic acid]

SMILES: C/C=C/C=C/C(=O)O [(2E,4E)-2,4 hexadienoic acid]
Observed Efficacy, W (%) (Trichoplusia ni): 4.5%

MIC (B) (Botrytis cinerea; [7]): 2500 µg/mL
SMILES: CCCC(O)CC(=O)O (centres unmarked) [3-Hydroxyhexanoic acid, 3-hydroxyhexanoic acid]

SMILES: C=CCCCC(=O)O [5-hexenoic acid]
Observed Efficacy, W (%) (Trichoplusia ni): 0%

MIC (Fusarium oxysporum; [1]): 625 µg/mL
MIC (Fusarium oxysporum; [10]): 625 µg/mL
MIC (Sclerotinia sclerotiorum; [2]): 312 µg/mL
SMILES: CCCCCCC(O)C(=O)O (centres unmarked) [2-hydroxyoctanoic acid]

SMILES: CCCC/C=C/CC(=O)O [Trans-3 octenoic acid]
Observed Efficacy, W (%) (Trichoplusia ni): 4.5%

SMILES: C/C=C/C=C/C(=O)[O-].[K+] [(2E,4E)-2,4 hexadienoic acid, K-salt]
Observed Efficacy, W (%) (Trichoplusia ni): 9.1%

SMILES: CC=CC=CC(=O)O [2,4-Dihexenoic acid]
MIC (B) (Botrytis cinerea; Compound B alone, incubation period of 48 hours): 125 µg/mL

SMILES: CC(C)C1C2CCC1c1c(NC(=O)c3cn(C)nc3C(F)F)cccc12 (centres unmarked) [Isopyrazam, reference compound]
MIC (A) (Botrytis cinerea; [6]): 31.25 µg/mL

SMILES: CC1COC(Cn2cncn2)(c2ccc(Oc3ccc(Cl)cc3)cc2Cl)O1 (centres unmarked) [Difenoconazole, reference compound]
MIC (A) (Fusarium oxysporum; [4]): 51 µg/mL
MIC (Botrytis cinerea; [9]): 25.5 µg/mL
MIC (A) (Botrytis cinerea; [5]): 51 µg/mL

SMILES: CCCC=CCC(=O)O [3-heptanoic acid]
Observed Efficacy, W (%) (Trichoplusia ni): 4.5%

SMILES: Cc1cc(C(F)(F)F)nn1CC(=O)N1CCC(c2nc(C3=NOC(c4c(F)cccc4F)C3)cs2)CC1 (centres unmarked) [Oxathiapiprolin, reference compound]
MIC (A) (Botrytis cinerea; [6]): 500 µg/mL

MIC (Fusarium oxysporum; [1]): 5000 µg/mL
MIC (Fusarium oxysporum; [10]): 5000 µg/mL
MIC (Sclerotinia sclerotiorum; [3]): 2500 µg/mL
MIC (Sclerotinia sclerotiorum; [2]): 2500 µg/mL
SMILES: CCC(O)C(=O)O (centres unmarked) [2-hydroxybutyric acid]

SMILES: CCCCCC/C=C/C(=O)O [Trans-2 nonenoic acid]
Observed Efficacy, W (%) (Trichoplusia ni): 3.6%
